Consider one molecule from patent publication US20230202997A1, “CHROMANOL, QUINONE OR HYDROQUINONE COMPOUNDS FOR TREATMENT OF SEPSIS” (Sulfateq B.V., priority 2020, published 2023).

In one experiment the test system is NO production in HUVEC. Briefly: Endothelial NO production (nitrate in conditioned medium), basal and after LPS. Particulars: 10 μM pre-treatment, LPS 100 ng/ml for 24 hours. The format is cell-based, Human. As to the method: (§1) Human Umbilical Cord Endothelial Cells (HUVEC, Lonza CC-2519) were maintained on 1% gelatin-coated culture flasks in RPMI1640 medium containing 20% fetal bovine serum, 2 mM Glutamine (Sigma-Aldrich), 1% Penicillin-Streptomycin solution (Sigma-Aldrich) and 50 μg/ml Bovine Pituitary Extract (Invitrogen). HUVEC were passaged by trypsinization when the cultures reach a confluency of 70%. For all experiments, HUVEC were seeded at 0.6·10^5 cells/cm^2 and allowed to adhere for 24 hours.
Cellular production of NO was approximated by measuring nitrate concentrations in culture media using the Measure-IT™ High-Sensitivity Nitrite Assay Kit (#M36051, ThermoFisher) according to manufacturer's instructions. […] Therefore, nitrate concentrations in conditioned media are a good approximate to assess cellular NO production. 50 μl conditioned medium derived from a single 96-wells plate well was used per assay and normalized against protein concentration. All experiments were performed in quadruplicate.
Endotoxins suppress endothelial NO production by limiting the activity of eNOS. HUVEC were pre-treated with vehicle (DMSO), BN-80933, SUL-138, or SUL-150 or (all 10 μM) prior to endotoxin (LPS 100 ng/ml) exposure for 24 hours. The nitrate levels in the conditioned medium from endothelial cells exposed to LPS averaged at 160 pmol/mg protein (˜33% reduction versus non LPS exposed HUVEC, p=0.002), which was lower than basal control levels. BN-80933 further suppressed the nitrate levels in the conditioned medium (FIG. 7A) to an average of 90 pmol/mg protein (p=0.008).

Experiment [1] concerns expression of IL-6, TNF-α, IL-1β and ICAM in the kidney. Briefly: CLP sepsis model, kidney RNA expression by qRT-PCR. The class given is in vivo. As to conditions: CLP mice; SUL-138 5 mg/kg s.c.; 24 hours. As to the method: To induce sepsis, the standard cecal ligation and puncture (CLP) model was used. Animals were anesthetized by subcutaneous injection of xylazine/ketamine (100/10 mg/kg), followed by administration of buprenorphine (0.1 mg/kg) as analgesic. After confirmation of anesthesia by lack of response to paw pinch and eye reflex, the abdomen was shaved, cleaned, and de-germed using a povidone-iodine solution before a 1-cm midline incision was made. The cecum was ligated with a 6-0 suture at half the distance between distal pole and the base of the cecum and punctured once with a 21-Gauge needle (‘through-and-through’ from mesenteric toward anti-mesenteric direction) which is an accepted model for ‘mid-grade’ sepsis. A small amount of stool (2-3 mm) was then extruded to ensure wound patency. The cecum was repositioned, thereby taking care not to spill fecal material on the wound edges, followed by closure of the abdomen by running sutures to the abdominal musculature and short interrupted sutures to the skin. Next, 1 ml of saline (warmed, 0.9% NaCl s.c.) was administered to compensate for the expected relative volume depletion due to the onset of sepsis.
Mice in the SUL-138 treated groups were injection with SUL-138 (dissolved in saline, 5 mg/kg, s.c.) at 2 hours before and 8 hours after surgery, while mice in the other groups were injected with an equal volume of saline at these time-points.
In order to assess the expression of proinflammatory cytokines and adhesion molecules in the kidney, including IL-6, TNF-α, IL-1β and ICAM, RNA was isolated from approximately 30 mg kidney tissue using Nucleospin RNA (Machery-Nagel, Duren, Germany), quantified using nanodrop spectrophotometer ND-1000 and converted into copy DNA (cDNA), using 0.5 μg RNA in each sample. For RNA isolation from cells, the same kit was used with slight adaptations: TRIzol and chloroform as lysis buffer, instead of the lysis buffer from the kit. Olignucleotide primers were designed using NCBI Primer Blast and Clone Manager (see appendix) and validated by assessing the efficiency, melting temperature and curve using qRT-PCR and size on gel electrophoresis of the naive and enzymatically digested products. qRT-PCR amplification was performed using the following thermal profile: 95° C. for 2 min, followed by 40 cycli of 95° C. for 15 sec, 58° C. for 30 sec and 72° C. 30 sec. All reactions were carried out in triplicate and a standard curve for each primer was used.
(In general: Quantitative PCR measures a nucleic acid by following its amplification.)

In experiment [2] the test system is TNFα mRNA expression. Briefly: Inhibition of LPS-induced TNFα mRNA expression in NRK52E. Particulars: 10 μM for 30 min, then LPS 24 hours. The format is cell-based, Rat. As to the method: Rat kidney epithelial cells (ATCC #CRL-1571) were maintained in DMEM medium containing 10% fetal bovine serum, and 1% Penicillin-Streptomycin solution (Sigma-Aldrich). NRK52E cells were passaged by trypsinization when the cultures reached a confluency of 70%. For all experiments, NRK52E cells were seeded at 0.6·10^5 cells/cm^2 and allowed to adhere for 24 hours.
(§2) HUVEC and NRK52E cells were pre-incubated with SUL compounds (10 μM) for 30 min and subsequently exposed to LPS for 24 hours under standard culture conditions. Cells were lysed in triZOL reagens (Invitrogen) and total RNA isolated according to manufacturers' instruction. 1 μg total RNA per sample was reverse transcribed using the FirstAid Reverse Transcription Kit (ThermoFisher). Copy-DNA equivalents of 5 ng total RNA were amplified on a ViiA7 Real-time PCR system (ThermoFisher, Waltham, Mass.) using iTaq Universal SYBR Green Supermix (Bio-Rad, Hercules, Calif.) and primers specific for tumor necrosis factor alpha, interleukin 1 beta, interleukin-6 and beta actin as loading control. Amplification was performed for 40 cycles of 95° C. for 30 s, 60° C. for 1 min. Relative mRNA expression was calculated as 2^−(Cq^gene^−Cq^reference^) and normalized to unstimulated control cells (100% inhibition) and vehicle-treated and LPS exposed cells (0% inhibition). The following primers were used: […]

A further experiment deals with IL-6 mRNA expression. Briefly: Inhibition of LPS-induced IL-6 mRNA expression in HUVEC. The format is cell-based, Human. As to conditions: 10 μM for 30 min, then LPS 24 hours. As to the method: as §1, §2
The test system of experiment [3] is TNFα mRNA expression. Briefly: Endothelial inflammatory activation after endotoxin, TNFα mRNA (Example 5). The class given is cell-based, Human. Particulars: HUVEC; 10 μM for 30 min. As to the method: as §1
HUVEC cells were lysed in triZOL reagens (Invitrogen) and total RNA isolated according to manufacturers' instruction. 1 μg total RNA per sample was reverse transcribed using the FirstAid Reverse Transcription Kit (ThermoFisher). Copy-DNA equivalents of 5 ng total RNA were amplified on a ViiA7 Real-time PCR system (ThermoFisher, Waltham, Mass.) using iTaq Universal SYBR Green Supermix (Bio-Rad, Hercules, Calif.) and primers specific for tumor necrosis factor alpha (TNFα; sense 5′-[…]-3′, antisense 5′-[…]-3′), interleukin 1 beta (IL-1β; sense 5′-[…]-3′, antisense 5′-[…]-3′), interleukin-6 (IL-6; sense 5′-[…]-3′, antisense 5′-[…]-3′) and beta actin (ACTB; sense 5′-[…]-3′, antisense 5′-[…]-3′) as loading control. Amplification was performed for 40 cycles of 95° C. for 30 s, 60° C. for 1 min. Relative mRNA expression was calculated according to the δδCt-method.

`Cc1c(C)c2c(c(C)c1O)CC[C@@](C)(C(=O)N1CCN(CCO)CC1)O2` [SUL-138, (S)-(6-hydroxy-2,5,7,8-tetramethylchroman-2-yl)(4-(2-hydroxyethyl)piperazin-1-yl)methanone]: in the experiment on NO production in HUVEC, the “nitrate levels in the conditioned medium after LPS” value was “mitigated the LPS-induced reduction in nitrate levels and their levels did not change from basal nitrate level”. In experiment [1], the “ICAM expression in the kidney (RNA)” value is “lower than in the untreated CLP animals but the difference was not statistically significant”, the “IL-1β expression in the kidney (RNA)” value was “lower than in the untreated CLP animals but the difference was not statistically significant”, the “IL-6 expression in the kidney (RNA)” value is “fully prevented the rise in IL-6 expression” and the “TNF-α expression in the kidney (RNA)” value is reported as “lower than in the untreated CLP animals but the difference was not statistically significant”. For the same molecule, the “inhibition of LPS-induced mRNA expression of TNFα” value in the experiment on TNFα mRNA expression [2] is 52.6 ± 11.6 %. The “inhibition of LPS-induced mRNA expression of IL-6” value with IL-6 mRNA expression turned out to be 68.3 ± 6.7 %. For the same molecule, in the experiment on TNFα mRNA expression [3], the “LPS-induced mRNA expression of TNFα” value was “precludes the induction of mRNA expression of the pro-inflammatory cytokine TNFα”.
